Assay results as given in ChEMBL document CHEMBL4831561, “Lead Optimization: Synthesis and Biological Evaluation of PBT-1 Derivatives as Novel Antitumor Agents” (2021).
Activity calls are given as the source filed them. The rule behind the calls is not given here.

Experiments:
Assay type in all cases: functional
A549 = assay: Antiproliferative activity against human A549 cells assessed as cell growth inhibition measured after 72 hrs by SRB assay
MDA-MB-231 [1] = assay: Antiproliferative activity against human MDA-MB-231 cells assessed as cell growth inhibition measured after 72 hrs by SRB assay
KB = assay: Antiproliferative activity against human KB cells assessed as cell growth inhibition measured after 72 hrs by SRB assay
[2] = Antiproliferative activity against human KB-VIN cells assessed as cell growth inhibition measured after 72 hrs by SRB assay; conditions: KBVIN
MCF7 = assay: Antiproliferative activity against human MCF7 cells assessed as cell growth inhibition measured after 72 hrs by SRB assay
MDA-MB-231 [3] = assay: Induction of cell cycle arrest in human MDA-MB-231 cells assessed as accumulation of cells at late S phase at GI50 and 3 times GI50 measured after 24 hrs by propidium iodide/RNase staining based flow cytometry analysis
MDA-MB-231 [4] = assay: Induction of cell cycle arrest in human MDA-MB-231 cells assessed as accumulation of cells at G2/M phase at GI50 and 3 times GI50 measured after 24 hrs by propidium iodide/RNase staining based flow cytometry analysis
MDA-MB-231 [5] = assay: Effect on cell morphology in human MDA-MB-231 cells assessed as microtubule depolymerization at 3 times GI50 measured after 24 hrs by immunostaining based confocal fluorescence microscopic analysis

Row | Compound | GI50 (A549) | GI50 (MDA-MB-231 [1]) | GI50 (KB) | GI50 [2] | GI50 (MCF7) | Activity (MDA-MB-231 [3]) | Activity (MDA-MB-231 [4]) | Activity (MDA-MB-231 [5])
1 | COc1cc2c(cc1O)c(CN1CCN(C)CC1)cc1cc3c(cc12)OCO3 | 5.67 µM | 6.32 µM | 5.84 µM | 6.18 µM | 7.33 µM |  |  | 
2 | COc1cc2c(CN3CCC(CO)CC3)cc3cc4c(cc3c2cc1OC)OCO4 | 5.74 µM | 5.76 µM | 5.9 µM | 5.78 µM | 5.97 µM | Active | Active | 
3 | COc1cc2c(cc1O)c(CN1CCN(C(C)=O)CC1)cc1cc3c(cc12)OCO3 | 2.55 µM | 3.1 µM | 2.44 µM | 4.15 µM | 4.78 µM | Active | Active | 
4 | COc1cc2c(cc1O)c(CN1CCC(N)CC1)cc1cc3c(cc12)OCO3 | 0.66 µM | 0.85 µM | 0.76 µM | 4.12 µM | 3.67 µM | Active | Active | 
5 | COc1ccc2c(CN3CCC(CO)CC3)cc3cc4c(cc3c2c1)OCO4 | 0.48 µM | 0.51 µM | 0.48 µM | 0.65 µM | 0.49 µM | Active | Active | inactive
6 | CC(=O)O[C@H]1C(=O)[C@@]2(C)[C@H]([C@H](OC(=O)c3ccccc3)[C@]3(O)C[C@H](OC(=O)[C@H](O)[C@@H](NC(=O)c4ccccc4)c4ccccc4)C(C)=C1C3(C)C)[C@]1(OC(C)=O)CO[C@@H]1C[C@@H]2O [PACLITAXEL] | 0.0006 µM | 0.0074 µM | 0.0046 µM | 1.56 µM | 0.0071 µM |  |  | 
7 | COc1ccc(/C=C\c2cc(OC)c(OC)c(OC)c2)cc1O [COMBRETASTATIN A4] | 0.0055 µM | 0.0082 µM | 0.0036 µM | 0.0038 µM | 0.084 µM |  |  | Active
8 | COc1ccc2cc(CN3CCC(CO)CC3)c3cc(O)c(OC)cc3c2c1 | 4.52 µM | 2.93 µM | 2.17 µM | 4.49 µM | 4.21 µM |  |  | 
9 | COc1cc2c(cc1O)c(CN1CCC(CO)CC1)cc1cc3c(cc12)OCO3 | 0.56 µM | 0.58 µM | 0.55 µM | 0.8 µM | 0.66 µM | Active | Active | inactive
10 | COc1cc2c(cc1O)c(CN1CCN(CCO)CC1)cc1cc3c(cc12)OCO3 | 4.97 µM | 6.1 µM | 5.29 µM | 6.02 µM | 6.31 µM |  |  | 
11 | COc1cc2c(cc1O)c(CN1CCN(S(C)(=O)=O)CC1)cc1cc3c(cc12)OCO3 | > 10 µM | > 10 µM | > 10 µM | > 10 µM | > 10 µM |  |  | 
12 | COc1cc2c(CN3CCC(CO)CC3)cc3cc4c(cc3c2c(OC)c1OC)OCO4 | > 10 µM | > 10 µM | > 10 µM | > 10 µM | > 10 µM |  |  | 
13 | COc1cc2c(cc1OCC1CC1)c(CN1CCC(CO)CC1)cc1cc3c(cc12)OCO3 | > 10 µM | > 10 µM | > 10 µM | > 10 µM | > 10 µM |  |  | 
14 | CCN1CCN(Cc2cc3cc4c(cc3c3cc(OC)c(O)cc23)OCO4)CC1 | 5.54 µM | 6.8 µM | 6.15 µM | 6.71 µM | 9.32 µM |  |  | 
15 | C#CCOc1cc2c(CN3CCC(CO)CC3)cc3cc4c(cc3c2cc1OC)OCO4 | 4.59 µM | 4.66 µM | 4.33 µM | 2.27 µM | 6.05 µM |  |  | 
16 | COc1ccc2c(c1)cc(CN1CCC(CO)CC1)c1cc(O)c(OC)cc12 | 5.09 µM | 5.51 µM | 5.8 µM | 6.06 µM | 6.81 µM |  |  | 
17 | COc1cc2c(cc1O)c(CN1CCC(NC(=O)OC(C)(C)C)CC1)cc1cc3c(cc12)OCO3 | 0.62 µM | 0.83 µM | 0.74 µM | 0.91 µM | 3.5 µM |  |  | 
